Converted amounts (≈) assume the structure as drawn. Read-outs that look alike come from different tables or passages of the source.
Columns and labels:
Format in all cases: cell-based
[1] = system: Aspergillus niger ATCC 9142; assay: In vitro antifungal activity (MIC80), Aspergillus niger ATCC 9142; conditions: Table 3, ATCC 9142; for MIC80: Aspergillus niger, ATCC9142, read-out: Minimal inhibitory concentration (MIC80)
Method: (§1) In vitro antifungal activities of the inventive antifungal compounds were evaluated using test strains including Candida albican (ATCC 90873, 204276, 62342, 64124, 64550, 96901, MYA-573, MYA-574, MYA-575, MYA-576, MYA-1003) and Aspergillus fumigatus (ATCC 16424). Test samples and positive control samples were prepared by dissolving the inventive compounds and comparative compounds, i.e., amphotericin B, fluconazole and itraconazole, in DMSO, respectively, and each successively diluted with medium to obtain test and positive control solutions having test compound concentrations of 0.125 μg/ml to a maximum concentration not generating turbidity. Minimal inhibitory concentration (MIC80) of each compound was determined as the lowest concentration of the test compounds required to reduce growth by 80% relative to a control strain not treated.
(§2) 3) Preparation of test samples: the inventive compounds and comparative compounds were each diluted with DMSO to obtain 1 to 2 ml of a test sample in a concentration of 100-folds of the determining maximum concentration (256 μg/ml).
(§3) The test samples were each successively diluted with RPMI 1640 to obtain test solutions having concentrations of […] in a 12×75 mm sterilized disposable culture tube. The final concentration of DMSO was adjusted to […] (v/v).
(§4) Candida albican strains were each subcultured in Sabourad Dextrose Agar, YM Agar or Potato Dextrose Agar medium at 35° C. for 2˜3 days. In the case of yeasts, a single colony was taken from prominent colonies and suspended in 0.85% sterile physiological saline solution and the turbidity of the suspension was adjusted to 80˜82% at 530 nm, and then diluted 50-fold with RPMI 1640 medium to 1.0×10^3˜5.0×10^3 CFU/ml. The turbidity of fungi was adjusted to 80˜82% and the suspension was diluted 50-fold to […]. Aspergillus fumigatus strains were subcultured in Malt Extract Agar for 7˜10 days, and a single colony was taken from prominent colonies and suspended in 0.85% sterile physiological saline solution and the suspension was adjusted to 0.108 at 530 nm, and then diluted 1000-fold with RPMI 1640 medium to 0.4×10^2˜5×10^4 CFU/ml. The turbidity of fungi was adjusted to 80˜82% and the suspension was diluted 50-fold to 0.4102˜0.5104 CFU/ml.
(§5) The strain solutions thus obtained were each seeded into a sterilized 96-well microplate, 0.1 ml of each test solution were added thereto, and […] of alamarblue was treated to each well (Biosource, #DAL1100). This procedure was repeated 2 times.
(§6) Minimal inhibitory concentration (MIC80) of each compound was determined as the lowest concentration of the test compounds required to reduce growth by 80% relative to a control strain not treated.
(§7) MIC80 of each of the compounds of which antifungal activities can be confirmed by Table 2 was determined using other test strains, i.e., Aspergillus fumigatus ATCC 16424 and MYA-1163, Aspergillus terreus ATCC 28301, Aspergillus flavus ATCC MYA-1004, and Aspergillus niger ATCC 9142.

[2] = system: Candida albican ATCC MYA-1003; assay: In vitro antifungal activity (MIC80), Candida albican ATCC MYA-1003; conditions: Table 2, MYA 1003; for MIC80: Candida, read-out: Minimal inhibitory concentration (MIC80)
Procedure, shortened: (§8)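 Broth microdilution in RPMI 1640 with 2% (v/v) final DMSO, test solutions 0.25 to 256 […]. Inoculum of 1.0×10^3–5.0×10^3 CFU/ml came from colonies grown 2–3 days at 35 °C, and alamarBlue was added. MIC80 is the lowest concentration reducing growth by 80% versus untreated control.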

[3] = system: Aspergillus fumigatus (ATCC 16424); assay: In vitro antifungal activity (MIC80), Aspergillus fumigatus ATCC 16424; conditions: for MIC80: Aspergillus fumigatus, read-out: Minimal inhibitory concentration (MIC80)
Procedure, shortened: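 Broth dilution in RPMI 1640 with 2% (v/v) final DMSO; A. fumigatus inoculum from Malt Extract Agar subculture diluted 1000-fold to 0.4×10^2˜5×10^4 CFU/ml, alamarblue added, repeated 2 times. MIC80 is lowest concentration reducing growth 80% versus untreated control.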

[4] = system: Candida albican ATCC 90873; assay: In vitro antifungal activity (MIC80), Candida albican ATCC 90873; conditions: Table 2, ATCC 90873; for MIC80: Candida, ATCC90873, read-out: Minimal inhibitory concentration (MIC80)
Procedure, shortened: as §8

[5] = system: Candida albican ATCC MYA-573; assay: In vitro antifungal activity (MIC80), Candida albican ATCC MYA-573; conditions: Table 2, MYA 573; for MIC80: Candida, read-out: Minimal inhibitory concentration (MIC80)
Procedure, shortened: as §8

[6] = system: Candida albican ATCC 64550; assay: In vitro antifungal activity (MIC80), Candida albican ATCC 64550; conditions: Table 2, 64550; for MIC80: Candida, ATCC64550, read-out: Minimal inhibitory concentration (MIC80)
Procedure, shortened: as §8

[7] = system: Candida albican ATCC MYA-574; assay: In vitro antifungal activity (MIC80), Candida albican ATCC MYA-574; conditions: Table 2, MYA 574; for MIC80: Candida, read-out: Minimal inhibitory concentration (MIC80)
Procedure, shortened: as §8

[8] = system: Aspergillus flavus ATCC MYA-1004; assay: In vitro antifungal activity (MIC80), Aspergillus flavus ATCC MYA-1004; conditions: Table 3, MYA-1004; for MIC80: Aspergillus flavus, read-out: Minimal inhibitory concentration (MIC80)
Method: as §1, §2, §3, §4, §5, §6, §7

[9] = system: Candida albican ATCC MYA-575; assay: In vitro antifungal activity (MIC80), Candida albican ATCC MYA-575; conditions: Table 2, MYA 575; for MIC80: Candida, read-out: Minimal inhibitory concentration (MIC80)
Procedure, shortened: as §8

[10] = system: Candida albican ATCC MYA-576; assay: In vitro antifungal activity (MIC80), Candida albican ATCC MYA-576; conditions: Table 2, MYA 576; for MIC80: Candida, read-out: Minimal inhibitory concentration (MIC80)
Procedure, shortened: as §8

[11] = system: Candida albican ATCC 64124; assay: In vitro antifungal activity (MIC80), Candida albican ATCC 64124; conditions: Table 2, 64124; for MIC80: Candida, ATCC64124, read-out: Minimal inhibitory concentration (MIC80)
Procedure, shortened: as §8

[12] = system: Candida albican ATCC 96901; assay: In vitro antifungal activity (MIC80), Candida albican ATCC 96901; conditions: Table 2, ATCC 96901; for MIC80: Candida, ATCC96901, read-out: Minimal inhibitory concentration (MIC80)
Procedure, shortened: as §8

[13] = system: Aspergillus terreus ATCC 28301; assay: In vitro antifungal activity (MIC80), Aspergillus terreus ATCC 28301; conditions: Table 3, ATCC 28301; for MIC80: Aspergillus terreus, ATCC28301, read-out: Minimal inhibitory concentration (MIC80)
Method: as §1, §2, §3, §4, §5, §6, §7

[14] = system: Aspergillus fumigatus MYA-1163; assay: In vitro antifungal activity (MIC80), Aspergillus fumigatus MYA-1163; conditions: Table 3, MYA-1163; for MIC80: Aspergillus fumigatus, MYA1163, read-out: Minimal inhibitory concentration (MIC80)
Method: as §1, §2, §3, §4, §5, §6, §7

[15] = system: Candida albican ATCC 62342; assay: In vitro antifungal activity (MIC80), Candida albican ATCC 62342; conditions: Table 2, 62342; for MIC80: Candida, ATCC62342, read-out: Minimal inhibitory concentration (MIC80)
Procedure, shortened: as §8

Compound	MIC80 [1]	MIC80 [2]	MIC80 ([3]; ATCC16424, Table 2, ATCC 16424)	MIC80 ([3]; ATCC16424, Table 3, ATCC 16424)	MIC80 [4]	MIC80 [5]	MIC80 [6]	MIC80 [7]	MIC80 [8]	MIC80 [9]	MIC80 [10]	MIC80 [11]	MIC80 [12]	MIC80 [13]	MIC80 [14]	MIC80 [15]	further results
CCC(C)n1ncn(-c2ccc(N3CCN(c4ccc(OCC5COC(Cn6cncn6)(c6ccc(Cl)cc6Cl)O5)cc4)CC3)cc2)c1=O (centres unmarked) [I, itraconazole, reference compound]	1 µg/mL (≈ 1.42 µM)	> 128 µg/mL	0.25 µg/mL (≈ 0.354 µM)	0.125 µg/mL (≈ 0.177 µM)	0.125 µg/mL (≈ 0.177 µM)	0.5 µg/mL (≈ 0.709 µM)	0.5 µg/mL (≈ 0.709 µM)	> 128 µg/mL	0.25 µg/mL (≈ 0.354 µM)	0.125 µg/mL (≈ 0.177 µM)	0.125 µg/mL (≈ 0.177 µM)	> 128 µg/mL	> 128 µg/mL	0.25 µg/mL (≈ 0.354 µM)	0.5 µg/mL (≈ 0.709 µM)	0.25 µg/mL (≈ 0.354 µM)	–
C[C@@H]1[C@H](O)[C@@H](C)/C=C/C=C/C=C/C=C/C=C/C=C/C=C/[C@H](O[C@@H]2O[C@H](C)[C@@H](O)[C@H](N)[C@@H]2O)C[C@@H]2O[C@](O)(C[C@@H](O)C[C@@H](O)[C@H](O)CC[C@@H](O)C[C@@H](O)CC(=O)O[C@H]1C)C[C@H](O)[C@H]2C(=O)O [A, amphotericin B, reference compound]	–	–	–	–	–	–	–	–	–	–	–	–	–	–	–	–	Minimal inhibitory concentration (MIC80) [1]: 0.5 µg/mL (≈ 0.541 µM); Minimal inhibitory concentration (MIC80) [2]: 0.5 µg/mL (≈ 0.541 µM); Minimal inhibitory concentration (MIC80) ([3]; Table 2, ATCC 16424): 1 to 2 µg/mL; Minimal inhibitory concentration (MIC80) ([3]; Table 3, ATCC 16424): 0.5 µg/mL (≈ 0.541 µM); Minimal inhibitory concentration (MIC80) [4]: 1 to 2 µg/mL; Minimal inhibitory concentration (MIC80) [5]: 0.5 µg/mL (≈ 0.541 µM); Minimal inhibitory concentration (MIC80) [6]: 0.5 µg/mL (≈ 0.541 µM); Minimal inhibitory concentration (MIC80) [7]: 0.25 µg/mL (≈ 0.271 µM); Minimal inhibitory concentration (MIC80) [8]: 4 µg/mL (≈ 4.33 µM); Minimal inhibitory concentration (MIC80) [9]: 0.5 µg/mL (≈ 0.541 µM); Minimal inhibitory concentration (MIC80) [10]: 0.5 µg/mL (≈ 0.541 µM); Minimal inhibitory concentration (MIC80) [11]: 0.5 µg/mL (≈ 0.541 µM); Minimal inhibitory concentration (MIC80) [12]: 0.25 µg/mL (≈ 0.271 µM); Minimal inhibitory concentration (MIC80) [13]: 4 µg/mL (≈ 4.33 µM); Minimal inhibitory concentration (MIC80) [14]: 2 µg/mL (≈ 2.16 µM); Minimal inhibitory concentration (MIC80) [15]: 0.5 µg/mL (≈ 0.541 µM)
C[C@@H](N1CCCN(c2ccccn2)CC1)[C@](O)(Cn1cncn1)c1ccc(F)cc1F [Example 38, (2R,3R)-2-(2,4-difluorophenyl)-3-(4-(pyridin-2-yl)-1,4-diazepan-1-yl)-1-(1H-1,2,4-triazol-1-yl)butan-2-ol]	1 µg/mL (≈ 2.33 µM)	64 µg/mL (≈ 149 µM)	0.125 µg/mL (≈ 0.292 µM)	0.125 µg/mL (≈ 0.292 µM)	0.125 µg/mL (≈ 0.292 µM)	1 µg/mL (≈ 2.33 µM)	2 µg/mL (≈ 4.67 µM)	2 µg/mL (≈ 4.67 µM)	0.5 µg/mL (≈ 1.17 µM)	0.125 µg/mL (≈ 0.292 µM)	0.125 µg/mL (≈ 0.292 µM)	16 µg/mL (≈ 37.3 µM)	32 µg/mL (≈ 74.7 µM)	1 µg/mL (≈ 2.33 µM)	0.5 µg/mL (≈ 1.17 µM)	0.25 µg/mL (≈ 0.583 µM)	–

Now from value to compound, other results behind:

MIC80 [1]	MIC80 [2]	MIC80 ([3]; ATCC16424, Table 2, ATCC 16424)	MIC80 ([3]; ATCC16424, Table 3, ATCC 16424)	MIC80 [4]	MIC80 [5]	MIC80 [6]	MIC80 [7]	MIC80 [8]	MIC80 [9]	MIC80 [10]	MIC80 [11]	MIC80 [12]	MIC80 [13]	MIC80 [14]	MIC80 [15]	Compound	further results
2 µg/mL (≈ 3.96 µM)	> 128 µg/mL	0.5 µg/mL (≈ 0.99 µM)	0.5 µg/mL (≈ 0.99 µM)	0.125 µg/mL (≈ 0.248 µM)	0.125 µg/mL (≈ 0.248 µM)	0.5 µg/mL (≈ 0.99 µM)	0.25 µg/mL (≈ 0.495 µM)	1 µg/mL (≈ 1.98 µM)	0.125 µg/mL (≈ 0.248 µM)	0.125 µg/mL (≈ 0.248 µM)	8 µg/mL (≈ 15.8 µM)	2 µg/mL (≈ 3.96 µM)	1 µg/mL (≈ 1.98 µM)	1 µg/mL (≈ 1.98 µM)	0.125 µg/mL (≈ 0.248 µM)	C[C@@H](N1CCN(c2nc3ccc(Cl)cc3s2)CC1)[C@](O)(Cn1cncn1)c1ccc(F)cc1F [Example 4, (2R,3R)-3-(4-(6-chlorobenzothiazol-2-yl)piperazin-1-yl)-2-(2,4-difluorophenyl)-1-(1H-1,2,4-triazol-1-yl)butan-2-ol]	–
1 µg/mL (≈ 2.05 µM)	> 128 µg/mL	0.125 µg/mL (≈ 0.256 µM)	0.125 µg/mL (≈ 0.256 µM)	0.125 µg/mL (≈ 0.256 µM)	0.25 µg/mL (≈ 0.511 µM)	0.5 µg/mL (≈ 1.02 µM)	0.25 µg/mL (≈ 0.511 µM)	0.25 µg/mL (≈ 0.511 µM)	0.125 µg/mL (≈ 0.256 µM)	0.125 µg/mL (≈ 0.256 µM)	4 µg/mL (≈ 8.18 µM)	2 µg/mL (≈ 4.09 µM)	0.5 µg/mL (≈ 1.02 µM)	0.25 µg/mL (≈ 0.511 µM)	0.25 µg/mL (≈ 0.511 µM)	C[C@@H](N1CCN(c2nc3ccc(Cl)cc3o2)CC1)[C@](O)(Cn1cncn1)c1ccc(F)cc1F [Example 6, (2R,3R)-3-(4-(6-chlorobenzooxazol-2-yl)piperazin-1-yl)-2-(2,4-difluorophenyl)-1-(1H-1,2,4-triazol-1-yl)butan-2-ol]	–

From US20100144712A1 (priority 2007, published 2010)
